Experimental data published in patent publication US8426408B2, “Pyrimidine inhibitors of kinases” (AbbVie Inc., priority 2009, dated 2013).

What was measured:
Aurora B = biological target: T1, Aurora B (Homo sapiens, UniProt Q96GD4); test: Aurora B enzyme inhibition (time-resolved fluorescence, histone H3 peptide); type: biochemical; settings: 1 mM ATP
T1 construct: Active Aurora B enzyme (recombinant residues 1-344)
Procedure, shortened: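 IC50s came from an exponential fit of inhibition against inhibitor concentration, with phosphorylation read as the 665/615 nm time-resolved fluorescence ratio after EDTA stop using Eu-anti-phospho-H3 and SA-APC. The 1 h reaction used Aurora B 1-344 plus GST-INCENP, biotin-histone H3 1-21 peptide and 1 mM ATP in pH 7.4 HEPES buffer.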

KDR [1] = biological target: T2, KDR (Homo sapiens, UniProt P35968); test: KDR cellular assay (KDR receptor phosphorylation ELISA); type: cell-based; parameters: expressed in transfected cells; host or cells: 3T3 (embryonic mouse) cells; settings: KDR transfected 3T3 (embryonic mouse) cells, VEGF stimulated; read-out: IC50 inhibition of KDR phosphorylation
Procedure, shortened: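 Phospho-KDR measured by capture ELISA (anti-KDR coat, biotinylated detection, streptavidin-HRP, 450 nm) in lysates of KDR-expressing 3T3 mouse fibroblasts. Cells saw compound 20 min at 37° C before 10 min VEGF challenge (100 ng/ml solution); IC50 from non-linear regression of half-log dose series.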
Target sequence in this assay (P35968 20-1356): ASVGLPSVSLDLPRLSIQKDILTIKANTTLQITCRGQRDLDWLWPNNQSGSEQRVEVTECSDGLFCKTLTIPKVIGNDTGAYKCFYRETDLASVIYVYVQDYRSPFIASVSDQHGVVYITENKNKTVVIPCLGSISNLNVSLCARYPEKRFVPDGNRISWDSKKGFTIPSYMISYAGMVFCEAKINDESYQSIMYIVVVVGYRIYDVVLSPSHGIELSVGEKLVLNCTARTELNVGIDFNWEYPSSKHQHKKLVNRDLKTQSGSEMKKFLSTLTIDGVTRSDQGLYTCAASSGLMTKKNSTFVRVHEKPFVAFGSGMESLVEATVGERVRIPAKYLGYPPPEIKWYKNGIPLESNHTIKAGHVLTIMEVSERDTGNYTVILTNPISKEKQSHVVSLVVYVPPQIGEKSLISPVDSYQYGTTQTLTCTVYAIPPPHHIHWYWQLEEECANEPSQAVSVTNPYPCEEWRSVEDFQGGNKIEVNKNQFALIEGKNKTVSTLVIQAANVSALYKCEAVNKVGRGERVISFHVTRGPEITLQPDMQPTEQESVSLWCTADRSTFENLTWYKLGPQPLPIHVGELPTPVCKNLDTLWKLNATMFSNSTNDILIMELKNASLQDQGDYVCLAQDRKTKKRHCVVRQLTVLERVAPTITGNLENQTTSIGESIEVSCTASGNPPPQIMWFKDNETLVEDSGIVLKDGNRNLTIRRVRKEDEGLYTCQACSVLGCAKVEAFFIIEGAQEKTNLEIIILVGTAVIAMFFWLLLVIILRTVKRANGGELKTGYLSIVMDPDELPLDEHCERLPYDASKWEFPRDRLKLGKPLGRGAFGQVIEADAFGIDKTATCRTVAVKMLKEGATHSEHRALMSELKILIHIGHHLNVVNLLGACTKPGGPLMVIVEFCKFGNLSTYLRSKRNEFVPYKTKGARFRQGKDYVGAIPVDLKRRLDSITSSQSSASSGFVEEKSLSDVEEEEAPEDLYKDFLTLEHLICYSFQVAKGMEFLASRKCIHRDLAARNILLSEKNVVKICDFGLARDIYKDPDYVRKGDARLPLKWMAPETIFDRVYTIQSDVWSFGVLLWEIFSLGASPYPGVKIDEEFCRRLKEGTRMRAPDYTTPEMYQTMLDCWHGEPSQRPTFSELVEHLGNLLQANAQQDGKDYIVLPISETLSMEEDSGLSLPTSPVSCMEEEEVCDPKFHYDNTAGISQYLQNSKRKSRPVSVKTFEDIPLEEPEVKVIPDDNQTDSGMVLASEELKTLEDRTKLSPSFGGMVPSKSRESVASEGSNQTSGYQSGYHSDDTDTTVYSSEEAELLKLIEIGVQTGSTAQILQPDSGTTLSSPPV

KDR [2] = biological target: T2, KDR; test: KDR HTRF in vitro kinase assay; type: biochemical; parameters: purified enzyme (His6-KDR 789-1354, MW 63 kD); His6 (N); settings: 1 mM ATP; read-out: KDR enzyme inhibition data (Ki)
Procedure, shortened: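 His6-KDR 789-1354 (7 ng/well) with 0.5 μM biotinylated peptide substrate and 1 mM ATP in HEPES pH 7.1, MgCl2/MnCl2, 60 min at room temperature. EDTA-quenched, detected by streptavidin-XL-665 plus Eu-kryptate anti-phosphotyrosine HTRF after 3 h; IC50 from 620/665 nm ratio.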
Target sequence in this assay (P35968 789-1354): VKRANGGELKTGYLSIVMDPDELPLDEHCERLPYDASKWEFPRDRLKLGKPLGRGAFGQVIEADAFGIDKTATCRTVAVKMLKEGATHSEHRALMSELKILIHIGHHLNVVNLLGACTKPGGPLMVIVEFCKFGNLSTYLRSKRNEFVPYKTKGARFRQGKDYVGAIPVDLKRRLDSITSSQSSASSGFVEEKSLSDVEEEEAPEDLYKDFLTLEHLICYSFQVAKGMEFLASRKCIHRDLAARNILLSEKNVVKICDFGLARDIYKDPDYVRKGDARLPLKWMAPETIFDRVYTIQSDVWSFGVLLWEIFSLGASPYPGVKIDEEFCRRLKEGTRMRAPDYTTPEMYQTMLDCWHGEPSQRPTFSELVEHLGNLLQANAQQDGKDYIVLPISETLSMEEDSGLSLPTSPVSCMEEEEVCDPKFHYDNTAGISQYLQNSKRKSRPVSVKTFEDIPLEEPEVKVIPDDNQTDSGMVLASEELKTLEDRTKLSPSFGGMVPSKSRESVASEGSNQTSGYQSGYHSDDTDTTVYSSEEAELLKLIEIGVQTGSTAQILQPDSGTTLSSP

T1 sequence (Q96GD4 whole entry, the tested form may be a part): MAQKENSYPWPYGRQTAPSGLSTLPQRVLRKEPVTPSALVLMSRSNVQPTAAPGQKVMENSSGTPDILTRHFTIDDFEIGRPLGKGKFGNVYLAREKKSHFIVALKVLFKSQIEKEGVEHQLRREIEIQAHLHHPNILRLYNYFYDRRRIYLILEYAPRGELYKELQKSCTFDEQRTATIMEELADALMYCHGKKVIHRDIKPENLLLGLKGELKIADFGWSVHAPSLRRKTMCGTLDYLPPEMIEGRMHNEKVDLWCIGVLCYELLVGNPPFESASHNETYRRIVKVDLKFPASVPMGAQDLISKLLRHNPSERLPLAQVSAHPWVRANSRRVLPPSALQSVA
T1 sequence (Q9NQS7 826-918 partner limits assumed): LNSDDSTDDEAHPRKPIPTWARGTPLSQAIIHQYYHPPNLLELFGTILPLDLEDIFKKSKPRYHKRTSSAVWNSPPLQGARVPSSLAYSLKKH

Compound | Ki (Aurora B) | IC50 (KDR [1]) | Ki (KDR [2])
NC(=O)[C@@H]1[C@H](Nc2nc(Nc3cnn(C4CCC4)c3)ncc2Cl)[C@H]2C=C[C@@H]1C2 [Example 118, (1S,2S,3R,4R)-3-({5-chloro-2-[(1-cyclobutyl-1H-pyrazol-4-yl)amino]pyrimidin-4-yl}amino)bicyclo[2.2.1]hept-5-ene-2-carboxamide] | < 100 nM | < 100 nM | < 100 nM
Cn1cc(Nc2ncc(C(F)(F)F)c(Nc3ccccc3C3(O)CCC3)n2)cn1 [Example 115, 1-[2-({2-[(1-methyl-1H-pyrazol-4-yl)amino]-5-(trifluoromethyl)pyrimidin-4-yl}amino)phenyl]cyclobutanol] | < 100 nM | 100 to 1000 nM | < 100 nM
COc1cccc(Cn2cc(Nc3ncc(Cl)c(N[C@H]4[C@@H](C(N)=O)[C@@H]5C=C[C@H]4C5)n3)cn2)c1 [Example 155, (1S,2S,3R,4R)-3-[(5-chloro-2-{[1-(3-methoxybenzyl)-1H-pyrazol-4-yl]amino}pyrimidin-4-yl)amino]bicyclo[2.2.1]hept-5-ene-2-carboxamide] | < 100 nM | < 100 nM | < 100 nM
NC(=O)[C@@H]1[C@H](Nc2nc(Nc3cnn(CC4CCO4)c3)ncc2Cl)[C@H]2C=C[C@@H]1C2 (stereo partly drawn) [Example 129, (1S,2S,3R,4R)-3-[(5-chloro-2-{[1-(oxetan-2-ylmethyl)-1H-pyrazol-4-yl]amino}pyrimidin-4-yl)amino]bicyclo[2.2.1]hept-5-ene-2-carboxamide] | < 100 nM | < 100 nM | < 100 nM
CC(O)Cn1cc(Nc2ncc(C(F)(F)F)c(NC3C4CCC(C4)C3C(N)=O)n2)cn1 (mixture of isomers) [Example 21, (1S,2R,3S,4R)-3-{[2-({1-[(2R)-2-hydroxypropyl]-1H-pyrazol-4-yl}amino)-5-(trifluoromethyl)pyrimidin-4-yl]amino}bicyclo[2.2.1]heptane-2-carboxamide and (1R,2S,3R,4S)-3-{[2-({1-[(2R)-2-hydroxypropyl]-1H-pyrazol-4-yl}amino)-5-(trifluoromethyl)pyrimidin-4-yl]amino}bicyclo[2.2.1]heptane-2-carboxamide] | 100 to 1000 nM | 100 to 1000 nM | 100 to 1000 nM
(1S,2R)-2-{[5-chloro-2-({1-[2-(morpholin-4-yl)ethyl]-1H-pyrazol-4-yl}amino)pyrimidin-4-yl]amino}cyclopentanecarboxamide and (1R,2S)-2-{[5-chloro-2-({1-[2-(morpholin-4-yl)ethyl]-1H-pyrazol-4-yl}amino)pyrimidin-4-yl]amino}cyclopentanecarboxamide [Example 137] | < 100 nM | 100 to 1000 nM | < 100 nM
NC(=O)[C@@H]1[C@H](Nc2nc(Nc3cnn(C[C@H](O)CO)c3)ncc2Cl)[C@H]2C=C[C@@H]1C2 [Example 124, (1S,2S,3R,4R)-3-{[5-chloro-2-({1-[(2S)-2,3-dihydroxypropyl]-1H-pyrazol-4-yl}amino)pyrimidin-4-yl]amino}bicyclo[2.2.1]hept-5-ene-2-carboxamide] | < 100 nM | 100 to 1000 nM | < 100 nM
NC(=O)[C@@H]1[C@H](Nc2nc(Nc3cnn(Cc4ccccc4)c3)ncc2Br)[C@H]2C=C[C@@H]1C2 [Example 149, (1S,2S,3R,4R)-3-({2-[(1-benzyl-1H-pyrazol-4-yl)amino]-5-bromopyrimidin-4-yl}amino)bicyclo[2.2.1]hept-5-ene-2-carboxamide] | < 100 nM | < 100 nM | < 100 nM
Cn1cc(Nc2ncc(Cl)c(N[C@@H]3[C@H](C(N)=O)[C@H]4CC[C@@H]3O4)n2)cn1.Cn1cc(Nc2ncc(Cl)c(N[C@H]3[C@@H](C(N)=O)[C@@H]4CC[C@H]3O4)n2)cn1 (mixture of isomers) [Example 141, (1S,2R,3S,4R)-3-({5-chloro-2-[(1-methyl-1H-pyrazol-4-yl)amino]pyrimidin-4-yl}amino)-7-oxabicyclo[2.2.1]heptane-2-carboxamide and (1R,2S,3R,4S)-3-({5-chloro-2-[(1-methyl-1H-pyrazol-4-yl)amino]pyrimidin-4-yl}amino)-7-oxabicyclo[2.2.1]heptane-2-carboxamide] | < 100 nM | 100 to 1000 nM | < 100 nM
NC(=O)[C@@H]1[C@H](Nc2nc(Nc3cnn(Cc4ccc(Cl)cc4)c3)ncc2Br)[C@H]2C=C[C@@H]1C2 [Example 172, (1S,2S,3R,4R)-3-[(5-bromo-2-{[1-(4-chlorobenzyl)-1H-pyrazol-4-yl]amino}pyrimidin-4-yl)amino]bicyclo[2.2.1]hept-5-ene-2-carboxamide] | < 100 nM | < 100 nM | < 100 nM
Cn1cc(Nc2ncc(C(F)(F)F)c(N[C@H]3[C@@H](C(N)=O)C[C@H]4C[C@@H]3C4(C)C)n2)cn1 [Example 167, (1R,2R,3S,5R)-6,6-dimethyl-2-({2-[(1-methyl-1H-pyrazol-4-yl)amino]-5-(trifluoromethyl)pyrimidin-4-yl}amino)bicyclo[3.1.1]heptane-3-carboxamide] | < 100 nM | 100 to 1000 nM | < 100 nM
NC(=O)[C@@H]1[C@H](Nc2nc(Nc3cnn(-c4ccccc4)c3)ncc2Br)[C@H]2C=C[C@@H]1C2 [Example 173, (1S,2S,3R,4R)-3-({5-bromo-2-[(1-phenyl-1H-pyrazol-4-yl)amino]pyrimidin-4-yl}amino)bicyclo[2.2.1]hept-5-ene-2-carboxamide] | < 100 nM | < 100 nM | < 100 nM
NC(=O)[C@@H]1[C@H](Nc2nc(Nc3cnn(C[C@@H](O)CO)c3)ncc2Cl)[C@H]2C=C[C@@H]1C2 [Example 130, (1S,2S,3R,4R)-3-{[5-chloro-2-({1-[(2R)-2,3-dihydroxypropyl]-1H-pyrazol-4-yl}amino)pyrimidin-4-yl]amino}bicyclo[2.2.1]hept-5-ene-2-carboxamide] | < 100 nM | 100 to 1000 nM | < 100 nM
CNC(=O)Cn1cc(Nc2ncc(Cl)c(N[C@@H]3[C@H]4CC[C@H](C4)[C@@H]3C(N)=O)n2)cn1 [Example 88, (1R,2S,3R,4S)-3-{[5-chloro-2-({1-[2-(methylamino)-2-oxoethyl]-1H-pyrazol-4-yl}amino)pyrimidin-4-yl]amino}bicyclo[2.2.1]heptane-2-carboxamide] | < 100 nM | 100 to 1000 nM | < 100 nM
CCn1cc(Nc2ncc(Cl)c(N[C@H]3[C@@H](C(N)=O)[C@@H]4C=C[C@H]3C4)n2)cn1 (racemic) [Example 30, (1S,2S,3R,4R)-3-({5-chloro-2-[(1-ethyl-1H-pyrazol-4-yl)amino]pyrimidin-4-yl}amino)bicyclo[2.2.1]hept-5-ene-2-carboxamide and (1R,2R,3S,4S)-3-({5-chloro-2-[(1-ethyl-1H-pyrazol-4-yl)amino]pyrimidin-4-yl}amino)bicyclo[2.2.1]hept-5-ene-2-carboxamide] | < 100 nM | < 100 nM | < 100 nM
COc1cccc(CCn2cc(Nc3ncc(Br)c(N[C@H]4[C@@H](C(N)=O)[C@@H]5C=C[C@H]4C5)n3)cn2)c1 [Example 160, (1S,2S,3R,4R)-3-{[5-bromo-2-({1-[2-(3-methoxyphenyl)ethyl]-1H-pyrazol-4-yl}amino)pyrimidin-4-yl]amino}bicyclo[2.2.1]hept-5-ene-2-carboxamide] | < 100 nM | < 100 nM | < 100 nM
Cn1cc(Nc2ncc(C(F)(F)F)c(Nc3ccccc3C3(O)CNC3)n2)cn1 [Example 109, 3-[2-({2-[(1-methyl-1H-pyrazol-4-yl)amino]-5-(trifluoromethyl)pyrimidin-4-yl}amino)phenyl]azetidin-3-ol] | < 100 nM | 100 to 1000 nM | < 100 nM
CC(C)CCn1cc(Nc2ncc(Br)c(N[C@H]3[C@@H](C(N)=O)[C@@H]4C=C[C@H]3C4)n2)cn1 [Example 111, (1S,2S,3R,4R)-3-[(5-bromo-2-{[1-(3-methylbutyl)-1H-pyrazol-4-yl]amino}pyrimidin-4-yl)amino]bicyclo[2.2.1]hept-5-ene-2-carboxamide] | < 100 nM | < 100 nM | < 100 nM
NC(=O)[C@@H]1[C@H](Nc2nc(Nc3cnn([C@H]4CCOC4)c3)ncc2Br)[C@H]2C=C[C@@H]1C2 [Example 117, (1S,2S,3R,4R)-3-{[5-bromo-2-({1-[(3S)-tetrahydrofuran-3-yl]-1H-pyrazol-4-yl}amino)pyrimidin-4-yl]amino}bicyclo[2.2.1]hept-5-ene-2-carboxamide] | < 100 nM | < 100 nM | < 100 nM
Cc1nn(C)cc1Nc1ncc(Br)c(N[C@H]2[C@@H](C(N)=O)[C@@H]3C=C[C@H]2C3)n1 [Example 135, (1S,2S,3R,4R)-3-({5-bromo-2-[(1,3-dimethyl-1H-pyrazol-4-yl)amino]pyrimidin-4-yl}amino)bicyclo[2.2.1]hept-5-ene-2-carboxamide] | < 100 nM | < 100 nM | < 100 nM
